Peptide text beside a SMILES is read from it.
Experiments:
GRK2 and GRK5 = test: qRT-PCR of cardiac GRK expression, therapy-study; assay type: in vivo, Lewis/CrlBR rats; details: qRT-PCR normalised to GAPDH (Fig. 4C)
[1] = test system: β1EC2-specific memory B-cells; test: Flow cytometric detection of β1EC2-specific memory B-cells; assay type: in vivo, Lewis/CrlBR rats; details: Fig. 5K and L
Experimental: (c) For flow cytometric detection of β 1 EC2-specific memory B-cells, splenocytes (1.5x10^8 cells per staining, 2x10^7 cells/ ml in PBS/0.1% BSA/0.02% NaN3) were first labelled with anti-rat IgG(Fc) PE (Jackson Immunoresearch, West Grove, USA) followed by three washings and a blocking step using normal rat serum plus GST (1:500 and 2 μg/ ml, respectively). After another washing step, OX-33 FITC (BD, Heidelberg, Germany, 0.1 μg/ml) and DyLight649-labelled GST/β1EC2-FP (0.2 μg/ml) were added. All incubations were carried out for 15 min on ice and in the dark. Finally, the cells were washed three times and analysed on a FACS-Calibur (BD, Heidelberg, Germany) and FlowJo Software (Tree Star, Ashland, USA) was used to analyse the data.
(§1) Fig 5 Immunology of cyclic β1EC2-peptides: fate of β1EC2-specific T- and B-cells. (A) Titer-course of anti-β1EC2-abs in β1EC2-CP-treated rats during the first 6 months of the prevention-study before and 24h after cyclopeptide-injection. Time-points of antigen-boosts are indicated by (red) lines, time-points of CP-injections by (green) arrows. For better readability error-bars are not shown in the graph. (B) Pre-experiments (antigenic recall-assays) performed with CD4^+ T-cells prepared from spleens of GST/β1EC2 fusion-protein (FP)-immunised untreated (n = 3, black) vs. 0.9%NaCl-injected control rats (n = 3, white). […]

[2] = test system: functional β1EC2-specific memory B-cells; test: Adoptive B-cell transfer and suboptimal immunisation; assay type: in vivo, Lewis rats; details: purified B-cells from immunised treated donors into antigen-naïve recipients, then 12.5μg β1EC2/GST-FP in adjuvans (Fig. 5M)
Experimental: (d) To detect functional β 1 EC2-specific memory B-cells in vivo, B-cells were first purified from total splenocytes by negative depletion using mAb V65, R73, 10/78 and WT.5 plus magnetic beads (MACS, Miltenyi Biotec, Bergisch-Gladbach, Germany) yielding average purities of 87%. 2.6x10^7 purified B cells were injected in 250 μl PBS i.v. into antigen-naïve syngeneic male Lewis rats. To selectively trigger the transferred memory B-cells, recipient rats were immunised after five days with only 12.5 μg GST/β1EC2-FP in adjuvans per animal. Serum was collected for antibody detection just before as well as three and seven days after immunisation.
as §1

CD4+ T-cells = test: Recall-assay with splenic CD4+ T-cells; assay type: cell-based, Lewis/CrlBR rats; details: 1.0 μg/ml β1EC2-CP; T-cells from spleens of treated and untreated rats; [3H]-thymidine (Fig. 5B-D)
Experimental: (a) Recall-assays with T-cells from spleens of immunised untreated vs. β1EC2-CP-treated animals were conducted as described in [60]. In brief, to purify CD4^+ T-cells from the splenic cell preparations, B-cells and CD8^+ T-cells were depleted by commercially available magnetic beads (MACS, Miltenyi Biotec, Bergisch-Gladbach, Germany) yielding a purity >85%. 1x10^5 of the purified CD4^+ T-cells were then co-incubated in 96-well plates with 1x10^6 irradiated thymic antigen presenting cells (prepared from a younger rat). Reagents added in the different assays were 1.0 μg/ml β1EC2-CP, 1.0 μg/ml tuberculin purified protein derivative (PPD, internal control), 1.0 μg/ml glutathion-S-transferase (GST), as well as 1.0 and 0.1 μg/ml GST/β1EC2-fusion proteins (FP), respectively. Measured T-cell reactivities were normalised to medium. After 48 h of incubation the cells were pulsed with 1.25 μCi/well [^3H]-thymidine and further incubated for 16 h before the cells were harvested; the DNA-incorporated radioactivity was measured using a beta-plate counter.
Fig 5 Immunology of cyclic β1EC2-peptides: fate of β1EC2-specific T- and B-cells. (A) Titer-course of anti-β1EC2-abs in β1EC2-CP-treated rats during the first 6 months of the prevention-study before and 24h after cyclopeptide-injection. […] For better readability error-bars are not shown in the graph. […]

Q: Which results are given for `CC(C)[C@@H]1NC(=O)[C@H](Cc2ccccc2)NC(=O)[C@H](CC(=O)O)NC(=O)[C@H](CS)NC(=O)[C@H](CS)NC(=O)[C@H](CCCCN)NC(=O)[C@@H]2CCCN2C(=O)[C@H](CC(=O)O)NC(=O)[C@H](CC(N)=O)NC(=O)[C@H](Cc2ccc(O)cc2)NC(=O)[C@H](CS)NC(=O)[C@H](CCCNC(=N)N)NC(=O)[C@H](CCCNC(=N)N)NC(=O)[C@H](C)NC(=O)[C@H](CCC(=O)O)NC(=O)[C@H](CC(=O)O)NC(=O)[C@H](CO)NC(=O)[C@H](CCC(=O)O)NC(=O)[C@H](C)NC(=O)[C@H](CCCNC(=N)N)NC(=O)[C@H](C)NC(=O)[C@H](CCC(N)=O)NC(=O)CNC(=O)[C@H](CCCNC(=N)N)NC(=O)[C@H](CC(N)=O)NC(=O)[C@H]([C@@H](C)O)NC1=O` [β1EC2-CP] (cyclo(AESDEARRCYNDPKCCDFVTNRGQAR))?
A: upregulation of GRK2 and GRK5, in words (GRK2 and GRK5): reverted; β1EC2-specific memory B-cells by flow cytometry, in words [1]: complete depletion; anti-β1EC2-abs in serum of recipient rats after B-cell transfer, in words [2]: did not induce detectable amounts; in vitro recall response of purified CD4+ T-cells, in words (CD4+ T-cells): clearly responded to the FP but not to β1EC2-CP
